In patent publication US20250320184A1 (SIRONAX LTD., priority 2022, published 2025):

The compounds below were run against T1, SARM1 (50-724) (Homo sapiens, UniProt Q6SZW1) (assay: biochemical).
T1 sequence (Q6SZW1 50-724): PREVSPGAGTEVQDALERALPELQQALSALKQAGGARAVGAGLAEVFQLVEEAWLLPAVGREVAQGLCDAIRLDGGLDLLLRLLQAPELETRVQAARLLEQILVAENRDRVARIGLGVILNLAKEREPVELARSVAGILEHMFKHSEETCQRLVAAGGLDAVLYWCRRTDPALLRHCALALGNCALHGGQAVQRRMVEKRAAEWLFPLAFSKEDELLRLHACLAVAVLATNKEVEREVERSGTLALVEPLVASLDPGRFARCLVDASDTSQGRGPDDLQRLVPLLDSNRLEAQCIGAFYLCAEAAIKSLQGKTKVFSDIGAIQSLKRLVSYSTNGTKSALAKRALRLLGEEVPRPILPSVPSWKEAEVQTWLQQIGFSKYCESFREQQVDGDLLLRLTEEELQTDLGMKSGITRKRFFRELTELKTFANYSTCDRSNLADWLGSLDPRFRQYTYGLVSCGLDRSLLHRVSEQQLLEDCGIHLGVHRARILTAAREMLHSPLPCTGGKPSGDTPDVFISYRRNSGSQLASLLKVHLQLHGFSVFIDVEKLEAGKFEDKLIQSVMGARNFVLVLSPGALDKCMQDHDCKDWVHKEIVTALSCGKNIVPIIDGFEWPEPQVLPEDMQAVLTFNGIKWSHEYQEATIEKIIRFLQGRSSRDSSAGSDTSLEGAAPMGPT
Protocol: An enzymatic assay was performed in a 384-well plate using Dulbecco's phosphate-buffered saline (PBS) as the reaction buffer. […] The reaction was initiated by adding a mixture of 200 μM nicotinamide mononucleotide (NMN) as activator and 100 μM NAD^+ as substrate. After 1 h of incubation at room temperature, the reaction was terminated with 10 times volume of 70% acetonitrile, then centrifuged at 3800 rpm for 10 min.

Compound | IC50
CC1CNC(=O)c2cc(NS(=O)(=O)c3cccc(Cl)c3Cl)ccc21 (centres unmarked) [Compound 189] | < 100 nM
Cc1n[nH]c(=O)c2nc(NC(C)c3nn(C)c(Cl)c3Cl)ccc12 (racemic) [Compound 311, 2-((1-(4,5-dichloro-1-methyl-1H-pyrazol-3-yl)ethyl)amino)-5-methylpyrido[2,3-d]pyridazin-8(7H)-one] | < 100 nM
Cc1c(Cl)cc(F)cc1S(=O)(=O)Nc1ccc2cc[nH]c(=O)c2c1 [Compound 45, 3-chloro-5-fluoro-2-methyl-N-(1-oxo-1,2-dihydroisoquinolin-7-yl)benzenesulfonamide] | < 100 nM
CC1(C)CN(C(=O)c2ccccn2)c2cc(NS(=O)(=O)c3cccc(Cl)c3Cl)ccc21 [Compound 281, 2,3-dichloro-N-(3,3-dimethyl-1-picolinoylindolin-6-yl)benzenesulfonamide] | < 100 nM
Cc1c(F)cccc1S(=O)(=O)Nc1cccc(-c2ccc[nH]c2=O)c1 [Example 162, 3-fluoro-2-methyl-N-[3-(2-oxo-1,2-dihydropyridin-3-yl)phenyl]benzenesulfonamide] | > 1000 nM
Cc1c(F)cccc1[S+]([O-])Nc1ccc2c(c1)C(=O)NCC2 (centres unmarked) [Example 158] | > 1000 nM
Cc1c(F)cccc1S(=O)(=O)Nc1ccc2cn[nH]c2c1 [Compound 25, 3-fluoro-N-(1H-indazol-6-yl)-2-methylbenzenesulfonamide] | 500 to 1000 nM
Cc1cc(F)cc(C(Nc2ccc3c(c2)C(=O)NCC3)c2ccncc2)c1 (centres unmarked) [Example 177, 7-(((3-fluoro-5-methylphenyl)(pyridin-4-yl)methyl)amino)-3,4-dihydroisoquinolin-1(2H)-one] | > 1000 nM
Cc1ccc(Cl)c(S(=O)(=O)Nc2ccc3c(c2)C(=O)NCC3)c1Cl [Compound 2, 2,6-dichloro-3-methyl-N-(1-oxo-3,4-dihydro-2H-isoquinolin-7-yl)benzenesulfonamide] | < 100 nM
Cc1cc(F)cc(C(Nc2ccc3c(c2)C(=O)NCC3)C(C)C)c1 (racemic) [Example 144, 7-((1-(3-fluoro-5-methylphenyl)-2-methylpropyl)amino)-3,4-dihydroisoquinolin-1(2H)-one] | 100 to 500 nM
CC1(C)CNC(=O)c2cc(NS(=O)(=O)c3cccc(Cl)c3Cl)ccc21 [Compound 265, 2,3-dichloro-N-(4,4-dimethyl-1-oxo-1,2,3,4-tetrahydroisoquinolin-7-yl)benzenesulfonamide] | < 100 nM
Cc1cc(F)cc(S(=O)(=O)Nc2ccc3c(c2)C(=O)NCC3)c1 [Example 15A, 3-fluoro-5-methyl-N-(1-oxo-1,2,3,4-tetrahydroisoquinolin-7-yl)benzenesulfonamide] | > 1000 nM
Cc1c(F)cccc1S(=O)(=O)Nc1ccc2c(c1)C(=O)NCCC2 [Compound 6, 3-fluoro-2-methyl-N-(1-oxo-2,3,4,5-tetrahydro-1H-benzo[c]azepin-8-yl)benzenesulfonamide] | 100 to 500 nM
O=C1NCCc2cc(Cl)c(NS(=O)(=O)c3cccc(Cl)c3Cl)cc21 [Compound 47, 2,3-dichloro-N-(6-chloro-1-oxo-1,2,3,4-tetrahydroisoquinolin-7-yl)benzenesulfonamide] | > 1000 nM
O=C1NCCOc2ccc(NS(=O)(=O)c3cccc(Cl)c3Cl)cc21 [Compound 206, 2,3-dichloro-N-(5-oxo-3,4-dihydro-2H-1,4-benzoxazepin-7-yl)benzenesulfonamide] | 100 to 500 nM
O=c1[nH]ccc2ccc(OC(CO)c3cccc(Cl)c3Cl)cc12 (centres unmarked) [Example 228, 7-(1-(2,3-dichlorophenyl)-2-hydroxyethoxy)isoquinolin-1(2H)-one] | 100 to 500 nM
Cc1cc(F)cc(C(Nc2ccc3c(c2)C(=O)NCC3)c2cccnc2)c1 (centres unmarked) [Compound 178] | > 1000 nM
Cc1ccc(F)cc1S(=O)(=O)Nc1ccc2c(c1)C(=O)NCC2 [Compound 10, 5-fluoro-2-methyl-N-(1-oxo-1,2,3,4-tetrahydroisoquinolin-7-yl)benzenesulfonamide] | > 1000 nM

The next lines start with the values.

IC50 | Compound
< 100 nM | [2H]C(C)(Nc1ccc2c(C)n(CC(N)=O)nc2c1)c1nc(Cl)c(Cl)s1 (racemic) [Compound 376, 2-(6-((1-(4,5-dichlorothiazol-2-yl)ethyl-1-d)amino)-3-methyl-2H-indazol-2-yl)acetamide]
< 100 nM | CC(Nc1ccc2c(Cl)n(CC(N)=O)nc2c1)c1nc(Cl)c(Cl)s1 (racemic) [Compound 361, 2-(3-chloro-6-((1-(4,5-dichlorothiazol-2-yl)ethyl)amino)-2H-indazol-2-yl)acetamide]
< 100 nM | CC(Nc1cc(F)c2ncn(-c3cn[nH]c3)c(=O)c2c1)c1nc(Cl)c(Cl)s1 (single isomer, unassigned) [Example 374]
< 100 nM | Cc1cn(CC(N)=O)c(=O)c2nc(NC(C)c3nn(C)c(Cl)c3Cl)ccc12 (racemic) [Compound 324, 2-(2-((1-(4,5-dichloro-1-methyl-1H-pyrazol-3-yl)ethyl)amino)-5-methyl-8-oxo-1,7-naphthyridin-7(8H)-yl)acetamide]
< 100 nM | Cc1cnc2cc(NS(=O)(=O)c3cccc(Cl)c3Cl)ccc2c1 [Compound 26, 2,3-dichloro-N-(3-methylquinolin-7-yl)benzenesulfonamide]
100 to 500 nM | COc1ncc(C(C)Nc2ccc3cc[nH]c(=O)c3c2)cc1Cl (racemic) [Example 117, 7-((1-(5-chloro-6-methoxypyridin-3-yl)ethyl)amino)isoquinolin-1(2H)-one]
< 100 nM | CC1(C)C(=O)N(CC(N)=O)c2cc(NS(=O)(=O)c3cccc(Cl)c3Cl)ccc21 [Compound 255, 2-[6-[(2,3-dichlorophenyl)sulfonylamino]-3,3-dimethyl-2-oxo-indolin-1-yl]acetamide]
100 to 500 nM | Cn1ncc2ccc(NS(=O)(=O)c3cccc(Cl)c3Cl)cc21 [Compound 52, 2,3-dichloro-N-(1-methyl-1H-indazol-6-yl)benzenesulfonamide]
> 1000 nM | CC(Nc1ccc2nc[nH]c(=O)c2n1)c1c(Cl)ccc(F)c1Cl (single isomer, unassigned) [Compound 383]
500 to 1000 nM | CC(Nc1ccc2c(c1)C(=O)NCC2)c1cnc(Cl)c(Cl)c1 (racemic) [Example 119, 7-((1-(5,6-dichloropyridin-3-yl)ethyl)amino)-3,4-dihydroisoquinolin-1(2H)-one]
< 100 nM | CC(Nc1ccc2c(C(F)F)n(CC(N)=O)nc2c1)c1c(F)ccc(Cl)c1Cl (racemic) [Compound 365, 2-(6-((1-(2,3-dichloro-6-fluorophenyl)ethyl)amino)-3-(difluoromethyl)-2H-indazol-2-yl)acetamide]
< 100 nM | O=c1[nH]cc(Cl)c2ccc(NS(=O)(=O)c3cccc(Cl)c3Cl)cc12 [Compound 91, 2,3-dichloro-N-(4-chloro-1-oxo-1,2-dihydroisoquinolin-7-yl)benzenesulfonamide]
< 100 nM | CC(Nc1ccc2ccn(CCO)c(=O)c2c1)c1nc(Cl)c(Cl)s1 (racemic) [Compound 305, 7-((1-(4,5-dichlorothiazol-2-yl)ethyl)amino)-2-(2-hydroxyethyl)isoquinolin-1(2H)-one]
< 100 nM | CC(Nc1ccc2cc[nH]c(=O)c2c1)c1nccc(Cl)c1Cl (racemic) [Example 118, 7-((1-(3,4-dichloropyridin-2-yl)ethyl)amino)isoquinolin-1(2H)-one]
< 100 nM | Cc1n[nH]c2cc(NS(=O)(=O)c3cccc(Cl)c3Cl)cc(F)c12 [Compound 73, 2,3-dichloro-N-(4-fluoro-3-methyl-1H-indazol-6-yl)benzenesulfonamide]
> 1000 nM | Cc1c(Cl)c(C(C)Nc2ccc3cc[nH]c(=O)c3c2)nn1C (single isomer, unassigned) [Compound 226A]
< 100 nM | Cc1n[nH]c(=O)c2nc(NC(C)c3c(Cl)ccc(F)c3Cl)ccc12 (racemic) [Compound 314, 2-((1-(2,6-dichloro-3-fluorophenyl)ethyl)amino)-5-methylpyrido[2,3-d]pyridazin-8(7H)-one]
< 100 nM | Cc1nn(CC(N)=O)c(=O)c2cc(NC(C)c3nc(Cl)c(Cl)s3)ccc12 (single isomer, unassigned) [Compound 357]
100 to 500 nM | CC(Nc1ccc2cc[nH]c(=O)c2c1)c1cc(F)cc(F)c1 (racemic) [Example 114, 7-((1-(3,5-difluorophenyl)ethyl)amino)isoquinolin-1(2H)-one]
100 to 500 nM | O=S(=O)(Nc1ccc2sc(Cl)nc2c1)c1cccc(Cl)c1Cl [Compound 33, 2,3-dichloro-N-(2-chlorobenzo[d]thiazol-5-yl)benzenesulfonamide]
< 100 nM | CC(Nc1ccc2c(c1)N(C(=O)CC(N)=O)CC2(C)C)c1sc(Cl)nc1Cl (racemic) [Compound 317, 3-(6-((1-(2,4-dichlorothiazol-5-yl)ethyl)amino)-3,3-dimethylindolin-1-yl)-3-oxopropanamide]
> 1000 nM | CC(Nc1ccc2c(c1)C(=O)NCC2)c1cccc(F)c1F (racemic) [Example 106, 7-((1-(2,3-difluorophenyl)ethyl)amino)-3,4-dihydroisoquinolin-1(2H)-one]
< 100 nM | CC(=O)N1CC(C)(C)c2ccc(NS(=O)(=O)c3cccc(Cl)c3Cl)cc21 [Compound 220, N-(1-acetyl-3,3-dimethyl-indolin-6-yl)-2,3-dichloro-benzenesulfonamide]
